Measured values taken from ChEMBL document CHEMBL1137216, “Identification of a new scaffold for opioid receptor antagonism based on the 2-amino-1,1-dimethyl-7-hydroxytetralin pharmacophore” (J Med Chem, 2004).

Columns and labels:
[1] = target: T1, Kappa-type opioid receptor (Homo sapiens, UniProt P41145); experiment: Inhibition of [3H]U-69593 binding to human kappa opioid receptor expressed in CHO cells; assay type: cell-based
[2] = target: T2, Delta-type opioid receptor (Homo sapiens, UniProt P41143); experiment: Inhibition of [3H]C1-DPDPE binding to human delta opioid receptor expressed in CHO cells; assay type: cell-based
T2 sequence (P41143 whole entry): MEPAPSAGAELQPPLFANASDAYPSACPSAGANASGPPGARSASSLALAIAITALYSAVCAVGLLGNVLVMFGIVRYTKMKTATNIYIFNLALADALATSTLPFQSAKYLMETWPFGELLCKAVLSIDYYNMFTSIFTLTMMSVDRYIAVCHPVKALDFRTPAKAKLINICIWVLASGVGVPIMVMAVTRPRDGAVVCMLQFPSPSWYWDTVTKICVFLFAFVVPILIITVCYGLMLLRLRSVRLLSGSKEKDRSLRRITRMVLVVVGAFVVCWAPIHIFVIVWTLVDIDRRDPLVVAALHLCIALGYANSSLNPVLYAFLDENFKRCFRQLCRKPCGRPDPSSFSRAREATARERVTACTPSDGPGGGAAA

Mu-type opioid receptor [3] = target: T3, Mu-type opioid receptor (Homo sapiens, UniProt P35372); experiment: Inhibition of [3H]DAMGO binding to human Mu opioid receptor expressed in CHO cells; assay type: cell-based
T3 sequence (P35372 whole entry): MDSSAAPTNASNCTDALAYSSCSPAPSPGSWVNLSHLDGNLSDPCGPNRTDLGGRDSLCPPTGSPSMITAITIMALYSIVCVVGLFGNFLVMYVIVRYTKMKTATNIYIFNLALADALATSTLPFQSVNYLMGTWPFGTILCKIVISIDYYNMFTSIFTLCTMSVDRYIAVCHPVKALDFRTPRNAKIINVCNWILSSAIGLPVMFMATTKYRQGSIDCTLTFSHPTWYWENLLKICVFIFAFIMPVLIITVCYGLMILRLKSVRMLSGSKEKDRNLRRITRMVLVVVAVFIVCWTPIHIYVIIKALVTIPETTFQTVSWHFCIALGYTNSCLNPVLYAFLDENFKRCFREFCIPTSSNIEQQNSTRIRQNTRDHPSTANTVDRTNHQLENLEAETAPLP

[4] = target: T1, Kappa-type opioid receptor
Description: Antagonist potency towards human kappa opioid receptor in [35S]GTP-gamma-S, assay

Mu-type opioid receptor [5] = target: T3, Mu-type opioid receptor
Description: Antagonist potency towards human mu opioid receptor in [35S]GTP-gamma-S, assay

Mu-type opioid receptor [6] = target: T3, Mu-type opioid receptor; remark: listed apart in the source
Description: Agonist potency towards human mu opioid receptor in [35S]GTP-gamma-S, assay

[7] = target: T2, Delta-type opioid receptor
Description: Antagonist potency towards human delta opioid receptor in [35S]GTP-gamma-S, assay

T1 sequence (P41145 whole entry): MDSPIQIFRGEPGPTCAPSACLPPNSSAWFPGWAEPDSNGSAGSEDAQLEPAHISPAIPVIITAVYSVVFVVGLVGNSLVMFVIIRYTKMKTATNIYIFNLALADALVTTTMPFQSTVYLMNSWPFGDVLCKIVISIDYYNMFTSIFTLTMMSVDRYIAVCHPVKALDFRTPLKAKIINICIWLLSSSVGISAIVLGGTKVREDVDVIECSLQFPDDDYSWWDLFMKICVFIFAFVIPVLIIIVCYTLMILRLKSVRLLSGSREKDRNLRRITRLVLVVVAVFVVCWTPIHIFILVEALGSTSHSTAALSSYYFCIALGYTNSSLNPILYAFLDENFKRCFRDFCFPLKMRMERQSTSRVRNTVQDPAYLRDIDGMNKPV

SMILES	Ki [1] [nM]	Ki [2] [nM]	Ki (Mu-type opioid receptor [3]) [nM]	Ke [4] [nM]	Ke (Mu-type opioid receptor [5]) [nM]	Ke (Mu-type opioid receptor [6]) [nM]	Ke [7] [nM]
CC1(C)c2cc(O)ccc2CCC1NCC1CC1 (configuration not stated)	232	3830	312	–	–	–	–
CC1(C)c2cc(O)ccc2CCC1NC/C=C/c1ccccc1 (configuration not stated)	82.3	472	10.7	42.7	67.7	–	–
CCCNC1CCc2ccc(O)cc2C1(C)C (configuration not stated)	251	> 10000	491	–	–	–	–
CN(C)C1CCc2ccc(O)cc2C1(C)C (configuration not stated)	333	4010	114	–	–	–	–
CO[C@H]1Cc2ccc(O)cc2C(C)(C)[C@@H]1N	149	2430	17.5	49.3	–	234	–
CCCN(CCC)C1CCc2ccc(O)cc2C1(C)C (configuration not stated)	552	2720	482	–	–	–	–
CN(CC1CC1)C1CCc2ccc(O)cc2C1(C)C (configuration not stated)	146	601	104	–	–	–	–
C=CCN(CC=C)C1CCc2ccc(O)cc2C1(C)C (configuration not stated)	55.8	672	105	–	–	–	–
Oc1ccc2c3c1O[C@H]1c4[nH]c5c(c4C[C@@]4(O)[C@@H](C2)N(CC2CC2)CC[C@]314)C[C@@]1(O)[C@H]2Cc3ccc(O)c4c3[C@@]1(CCN2CC1CC1)[C@H]5O4	–	–	–	0.03	–	–	–
CC1(C)c2cc(O)ccc2CCC1N(CC1CC1)CC1CC1 (configuration not stated)	1830	5770	422	–	–	–	–
CO[C@H]1Cc2ccc(O)cc2C(C)(C)[C@@H]1NC/C=C/c1ccccc1	7.5	22.4	1.63	2.12	2.62	–	26.3
CN(C/C=C/c1ccccc1)C1CCc2ccc(O)cc2C1(C)C (configuration not stated)	207	591	39.7	–	–	–	–
CC1(C)c2cc(O)ccc2CCC1N(C/C=C/c1ccccc1)C/C=C/c1ccccc1 (configuration not stated)	1250	> 10000	268	–	–	–	–
C=CCN(C)C1CCc2ccc(O)cc2C1(C)C (configuration not stated)	263	2220	–	–	–	–	–
CCCN(C)C1CCc2ccc(O)cc2C1(C)C (configuration not stated)	184	2090	85	–	–	–	–
C=CCNC1CCc2ccc(O)cc2C1(C)C (configuration not stated)	63.7	5830	202	–	–	–	–
